Measurements as given in paper PMC8322070, “A novel orally active HDAC6 inhibitor T-518 shows a therapeutic potential for Alzheimer’s disease and tauopathy in mice” (Scientific Reports, 2021).
Read-outs that look alike come from different tables or passages of the source.

What was measured:
[1] = target: T1, human HDAC4 (Homo sapiens, UniProt P56524); test: HDAC enzyme assay (HDAC-Glo class IIa), HDAC4; type: biochemical; conditions: concentrations up to 10 μM
T1 construct: made in house
Method: Recombinant HDAC6, HDAC7, HDAC1 were obtained from SignalChem Pharmaceutical Inc. (Richmond, BC, Canada), and recombinant human HDAC4 was prepared at Takeda pharmaceutical company. One μL of T-518 diluted with DMSO was added to 75 μL of assay buffer (24 mM Tris–HCl (pH 7.5), 135 mM NaCl, 0.35 mM KCl, 1 mM MgCl2, 0.01% Tween 20, 0.6 mM GSH) in 384 well plates. Two μL of diluted compounds were added to 384 well plates and 2 μL of recombinant HDAC enzymes was added and then centrifuged at 1000 rpm for 10 s. The final concentrations of each HDAC enzyme were as follows, human HDAC1, 170 pM; human HDAC6, […]; human HDAC4, 68 pM; human HDAC7, 13 pM. After incubation for 60 min at room temperature, 4 μL of HDAC-Glo reagent [HDAC-Glo I/II (Promega) for HDAC6 and HDAC1, HDAC-Glo class IIa (Promega) for HDAC4 and HDAC7] was added to start the reaction. After incubation for 20 min at room temperature, the luminescence was measured by Envision plate reader (PerkinElmer, Waltham, MA, USA). For experiments under the condition of 0 min preincubation, 4 μL of HDAC-Glo reagent was added at first to the 384 well plates including diluted compounds. […] After centrifugation at 1000 rpm for 10 s. and then incubation for 20 min at room temperature, the luminescence was measured by Envision. […] The inhibitory activity of T-518 was expressed as the value of IC50. […]

[2] = In vivo pharmacokinetics in plasma and hippocampus (LC-MS/MS); set-up: species or system C57BL mice; conditions: 3 mg/kg, po
Method: (§1) T-518, ACY-738, Ricolinostat, and Tubastatin A were synthesized in Takeda. For in vitro cellular experiments, the compounds were solubilized with DMSO and diluted in the culture medium at the indicated concentrations. For in vivo experiments, the compound was reconstituted in 0.5% methylcellulose and administered orally at the indicated doses. After administration, mouse hippocampus was isolated and homogenized in RIPA extraction buffer (50 mM Tris–HCl, 150 mM NaCl, 1% NP-40, 0.5% sodium deoxycholate, and 0.1% SDS, pH 8.0) supplemented with protease and phosphatase inhibitor cocktail (Thermo Fischer, Waltham, MA, USA). The homogenate was centrifuged at 10,000g for 15 min and the supernatant was taken as the RIPA-soluble fraction.
The compound concentration was measured by the method previously reported with modification. Briefly, the hippocampus tissues from treated mice were isolated and homogenized in 4 volumes of saline under ice-cold conditions and stored at − 80 °C until liquid chromatography-tandem mass spectrometry (LC–MS/MS) analysis. Before analysis, samples were thawed gently on ice and mixed with three volumes of acetonitrile. The acetonitrile mixtures were vortexed and centrifuged for supernatant collection. The supernatant was diluted in mobile phase A [10 mM ammonium formate and formic acid at 100:0.2 (v/v)] and injected into the LC/MS/MS system. T-518 was analyzed in multiple reaction monitoring mode using an API4000 or API5000 instrument (Applied Biosystems, Foster City, CA, USA) equipped with a Prominence Ultra-fast liquid chromatography system (Shimadzu, Kyoto, Japan) using Shimadzu Shim- pack XR-ODS (2.2 μm, 2.0 × 30 mm) column. Mobile phase B consisted of a mixture of acetonitrile and formic acid at 100:0.2 (v/v). Chromatographic separations were performed by gradient elution at a flow rate of 0.7 mL/min. Mobile phase B was held at 5% for 0.2 min, increased linearly to 99% for 1.1 min, maintained at 99% for 0.7 min, then returned to 5% in 0.01 min, followed by re-equilibration for 0.59 min. A multiple reaction monitoring was used to detect the parent and product ions for the tandem mass spectrometry of T-518, which were corresponding to m/z 494 and m/z 374, respectively, with the negative ion mode [DP; -40, EP; -10, CE; -35, CXP; -15 (arbitrary units)]. Analyst software TM (version 1.6.2) (AB SCIEX, Framingham, MA; https://sciex.com/products/software/analyst-software) was used for data acquisition and processing.

[3] = Free fraction in a brain (Fu,b); type: in vitro ADME; conditions: data not shown
[4] = tested on: P301S tau Tg mice; test: Septohippocampal retrograde axonal transport of Fluoro-Gold in tauopathy model; type: in vivo, mouse; conditions: 3 mg/kg daily for 2 weeks, 5-month-old P301S tau Tg mice
Method: as §1
The integrity of retrograde axonal transport was evaluated by detecting the accumulation of Fluoro-Gold (Fluorochrome, Denver, CO) in the medial septal nucleus after injection into hippocampus (0.5 μL of 5% at AP − 2.3 mm, ML − 2.0 mm, and DV − 2.0 mm relative to bregma). Three days after injection, mice were anesthetized and transcardially perfused with PBS (pH 7.4) followed by 4% paraformaldehyde. […] Fluorescent cells in the medial septum region were counted with Image-Pro Plus software (version 4.5.0.24) (Media Cybernetics, Rockville, MD; https://www.mediacy.com/imageproplus).

[5] = tested on: P301S tau Tg mice; test: Novel object recognition test; type: in vivo, mouse; conditions: 1 and 3 mg/kg for 2 weeks
Method: as §1
The effect of T-518 on behavioral function was examined using the novel object recognition test: The box and objects used were purchased from BrainScience Idea (Osaka, Japan). The 30 × 30 × 35 cm gray-colored test box was used. The two objects used were pyramidal, white-colored, and ceramic (object A and A′) and cylindrical, silver, and aluminum (object B). In the acquisition phase, the identical objects (objects A and A′) were symmetrically placed in the box. Each animal was placed in the box for 5 min followed by a 24-h retention interval in the home cage. […] Time spent exploring the objects were measured during both phases. […]

T1 sequence (P56524 whole entry): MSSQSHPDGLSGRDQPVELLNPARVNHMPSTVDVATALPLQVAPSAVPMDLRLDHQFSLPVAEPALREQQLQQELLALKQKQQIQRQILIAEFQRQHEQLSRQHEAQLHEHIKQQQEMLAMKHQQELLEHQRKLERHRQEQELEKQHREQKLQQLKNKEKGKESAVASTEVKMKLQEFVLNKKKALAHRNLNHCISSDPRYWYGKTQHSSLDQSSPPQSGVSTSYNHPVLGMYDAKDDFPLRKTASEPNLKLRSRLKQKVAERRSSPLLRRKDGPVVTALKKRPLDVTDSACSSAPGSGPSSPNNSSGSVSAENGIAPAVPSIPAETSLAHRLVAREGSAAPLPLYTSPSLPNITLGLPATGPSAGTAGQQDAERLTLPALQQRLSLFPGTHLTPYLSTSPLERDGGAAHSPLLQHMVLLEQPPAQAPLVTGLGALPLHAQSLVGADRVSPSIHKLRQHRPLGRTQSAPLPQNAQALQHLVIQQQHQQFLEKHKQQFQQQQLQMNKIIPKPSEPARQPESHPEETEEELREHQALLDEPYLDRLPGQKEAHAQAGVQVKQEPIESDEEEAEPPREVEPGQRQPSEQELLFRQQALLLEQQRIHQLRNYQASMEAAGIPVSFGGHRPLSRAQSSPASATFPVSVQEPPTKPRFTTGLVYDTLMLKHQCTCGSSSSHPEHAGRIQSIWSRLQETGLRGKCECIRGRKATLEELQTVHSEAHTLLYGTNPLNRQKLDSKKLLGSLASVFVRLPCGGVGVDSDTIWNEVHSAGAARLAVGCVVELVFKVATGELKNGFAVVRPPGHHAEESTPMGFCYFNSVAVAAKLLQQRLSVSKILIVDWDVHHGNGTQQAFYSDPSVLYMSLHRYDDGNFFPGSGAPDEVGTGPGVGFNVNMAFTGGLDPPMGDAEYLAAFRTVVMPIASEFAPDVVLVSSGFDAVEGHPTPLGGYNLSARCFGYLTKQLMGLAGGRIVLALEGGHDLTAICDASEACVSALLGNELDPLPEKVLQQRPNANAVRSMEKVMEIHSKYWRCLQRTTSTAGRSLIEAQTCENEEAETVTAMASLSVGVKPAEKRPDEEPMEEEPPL

O=C1c2cc(-c3nnc(C(F)F)o3)cnc2CN1[C@@H]1CCCC[C@H]1NC(=O)C(F)(F)C(F)(F)F [T-518, N-[(1R,2R)-2-{3-[5-(difluoromethyl)-1,3,4-oxadiazol-2-yl]-5-oxo-5H,6H,7H-pyrrolo[3,4-b]pyridin-6-yl}cyclohexyl]-2,2,3,3,3-pentafluoropropanamide]
inhibition of human HDAC4 enzyme activity [1]: did not obviously inhibit
average exposure in 24 h in hippocampus ([2]; Fu,b 0.4): ~17 nM
Hippocampus AUC0–24 h ([2]; C57BL mice): 202 ng·h/g
Cmax ([2]; C57BL, mouse, hippocampus, Fu,b 0.4, read-out: Effective Cmax in hippocampus): ~291 nM
Tmax ([2]; C57BL, mouse, plasma and hippocampus, matrix not given, read-out: Tmax of a single oral dose): ≤ 15 min
Cmax ([2]; mouse, hippocampus, C57BL mice, read-out: Hippocampus Cmax): 144 ng/g
MRT ([2]; mouse, hippocampus, C57BL mice, read-out: Hippocampus MRT): 1.33 h
Tmax ([2]; mouse, hippocampus, C57BL mice, read-out: Hippocampus Tmax): 15 min
AUC(0-t) ([2]; mouse, plasma, C57BL mice, read-out: Plasma AUC0–24 h): 1720 ng·h/mL
Cmax ([2]; mouse, plasma, C57BL mice, read-out: Plasma Cmax): 1040 ng/mL
MRT ([2]; mouse, plasma, C57BL mice, read-out: Plasma MRT): 1.76 h
Tmax ([2]; mouse, plasma, C57BL mice, read-out: Plasma Tmax): 15 min
fraction unbound [3]: 0.4
retrograde axonal transport of Fluoro-Gold from hippocampus to medial septal nucleus [4]: significantly improved axonal transport
novel object recognition deficit (preference ratio) [5]: dose-dependently ameliorated
